# Results published in patent US11253594B2, “Drug combinations for protecting against neuronal cell death” (UNIVERSITY OF PITTSBURGH-OF THE COMMONWEALTH SYSTEM OF …, priority 2017, dated 2022).
# Counter-ions that a name gives are not always drawn.
# Columns and labels:
# STHdh^Q111 cells [1] = experiment: 384-well PI (propidium iodide) assay, protection from mHTT induced cell death; format: cell-based, mouse; conditions: compound titrations, serum deprived STHdh^Q111 cells
# Protocol: The well-established STHdh^Q111 cell model for HD was employed to identify compounds that can protect neuronal cells from mHTT-dependent cell death. […] The propidium iodide (PI) readout enables an unbiased assessment of cell death by measuring an irreversible step that is common to all cytotoxic mechanisms.
# The stress conditions for testing compounds involved incubation of the cells in serum-free medium at 37° C. and 5% CO2.
# Prior to compound treatment, medium was removed and the cells washed once with PBS (pH=7.4) after which 45 μl of complete medium was added. Compounds in 5 μl complete medium were added to cells. […] Compounds in serum free medium (5 μl) were added and cells were incubated at 37° C. and 5% CO2.
# Image analysis was carried out using the Multiwavelength Cell Scoring application in the MetaXpress software. The nuclear compartment was identified in Ch1 with a threshold intensity of 2,000 above background and the Texas Red compartment was identified in Ch2 with a threshold intensity of 20,000 above background.
# For the analyses presented here the Percent Recovery was calculated from the Percent PI positive cells by:
# [formula] where positive controls are the STHdh^Q7 cells, and negative controls are the STHdh^Q111 cells treated with DMSO
# The LOPAC library was screened in the 384-well PI assay at 30, 10, and 3 μM.
# [2] = tested on: PKA phosphorylated at threonine 197 (pPKA) in STHdh^Q111 cells; experiment: PKA activation assay (pPKA, high content analysis); format: cell-based, mouse; conditions: 24 h serum free conditions
# Protocol: The pPKA levels were examined at 24 hours after serum free conditions since this was the condition where the protection of the compounds was measured.
# Cells were treated as described for testing in the 384-well PI assay. […] Plates were blocked with 3% BSA in PBS and were incubated with rabbit anti-PKA (αβγ catalytic subunit; EP2606Y; phospho-T197, abcam, Cambridge Mass.) mAb overnight at 4° C. […] Image analysis was carried out using the Multiwavelength Translocation application in the MetaExpress software. The nuclear compartment was identified in Ch1 with a threshold intensity of 5,000 above background (the nuclear mask). The nuclear mask was eroded 1 μm to create the Inner region mask in Ch2. […] The cytoplasmic pKA was measured in a […] ring around the nuclear mask.
# STHdh^Q111 cells [3] = format: cell-based; conditions: for reduction in the level of protection compared to compound alone: co-incubation with 10 μM H89
# [4] = tested on: cAMP levels in STHdh^Q111 cells; experiment: cAMP Enzyme Immunoassay
Molecule,neuroprotective activity in the PI assay (STHdh^Q111 cells [1]),further results
CN1[C@@H]2CC[C@H]1CC(OC(=O)c1c[nH]c3ccccc13)C2.Cl (stereo partly shown) [3-tropanyl-indole-3-carboxylate hydrochloride],confirmed neuroprotective activity,
C/C=C1\C(=O)C[C@H]2[C@@H]3CCC4=CC(=O)CC[C@]4(C)[C@H]3CC[C@]12C [(Z)-Gugglesterone],confirmed neuroprotective activity,
CC(=O)Nc1nnc(S(N)(=O)=O)s1 [Acetazolamide],did not protect,
C[C@H]1C[C@H]2[C@@H]3CCC4=CC(=O)C=C[C@]4(C)[C@@]3(Cl)[C@@H](O)C[C@]2(C)[C@@]1(O)C(=O)CO [Beclomethasone],confirmed neuroprotective activity,
CN1[C@@H]2CC[C@H]1C[C@@H](OC(c1ccccc1)c1ccccc1)C2 [Benztropine mesylate],confirmed neuroprotective activity,"cytoplasmic pPKA, concentration response [2]: concentration-dependent increase; toxicity / protection with or of the PKA inhibitor (STHdh^Q111 cells [3]; STHdh^Q111 cells, PI assay conditions): increased toxicity"
CCN[C@H]1CN(CCCOC)S(=O)(=O)c2sc(S(N)(=O)=O)cc21 [Brinzolamide],did not protect,
CN1CCC(=C2c3ccccc3C=Cc3ccccc32)CC1 [Cyproheptadine hydrochloride],confirmed neuroprotective activity,
O=c1[nH]c2ccccc2n1CCCN1CCC(n2c(=O)[nH]c3cc(Cl)ccc32)CC1 [Domperidone],confirmed neuroprotective activity,reduction in the level of protection compared to compound alone (STHdh^Q111 cells [3]): 56%
CCN[C@H]1C[C@H](C)S(=O)(=O)c2sc(S(N)(=O)=O)cc21 [Dorzolamide],did not protect,
CCOc1ccc2nc(S(N)(=O)=O)sc2c1 [Ethoxzolamide],confirmed neuroprotective activity,
C[C@]12CCC(=O)C=C1CC[C@@H]1[C@@H]2[C@@H](O)C[C@@]2(C)[C@H]1CC[C@]2(O)C(=O)CO [Hydrocortisone],confirmed neuroprotective activity,
CCC(NC(C)C)C(O)c1ccc(O)c(O)c1 (stereo not shown) [Isotharine mesylate],confirmed neuroprotective activity,"cytoplasmic pPKA, concentration response [2]: concentration-dependent increase; reduction in the level of protection compared to compound alone (STHdh^Q111 cells [3]): 34%; statistical significance of change in cAMP levels ([4]; 15 and 30 minutes, t-test vs DMSO): statistically significant increase"
Cc1c(OCC(F)(F)F)ccnc1C[S+]([O-])c1nc2ccccc2[nH]1 (stereo not shown) [Lansoprazole],confirmed neuroprotective activity,
O=C(O)c1nn(Cc2ccc(Cl)cc2Cl)c2ccccc12 [Lonidamine],confirmed neuroprotective activity,
CN1CCN(C2=Nc3ccccc3Oc3ccc(Cl)cc32)CC1 [Loxapine succinate],confirmed neuroprotective activity,"cytoplasmic pPKA, concentration response [2]: concentration-dependent increase; reduction in the level of protection compared to compound alone (STHdh^Q111 cells [3]): 52%"
Cc1cccc(CN2CCN(C(c3ccccc3)c3ccc(Cl)cc3)CC2)c1 (stereo not shown) [Meclizine],confirmed neuroprotective activity,

Molecule,neuroprotective activity in the PI assay (STHdh^Q111 cells [1]),further results
CN1CCN2c3ccccc3Cc3ccccc3C2C1 (stereo not shown) [Mianserin hydrochloride],confirmed neuroprotective activity,"cytoplasmic pPKA, concentration response [2]: concentration-dependent increase; reduction in the level of protection compared to compound alone (STHdh^Q111 cells [3]): 35%"
"Cc1cccc(C(=O)NCN2CCN(c3ccccc3C#N)CC2)c1.O=C(O)/C=C\C(=O)O [PD 168,077 maleate]",confirmed neuroprotective activity,
COc1ccc(Cc2nccc3cc(OC)c(OC)cc23)cc1OC [Papaverine hydrochloride],confirmed neuroprotective activity,"cytoplasmic pPKA, concentration response [2]: less pronounced; reduction in the level of protection compared to compound alone (STHdh^Q111 cells [3]): 55%"
C[C@]12C=CC(=O)C=C1CC[C@@H]1[C@@H]2[C@@H](O)C[C@@]2(C)[C@H]1CC[C@]2(O)C(=O)CO [Prednisolone],confirmed neuroprotective activity,
"CN1CCN(c2ccc3ccccc3n2)CC1.O=C(O)/C=C\C(=O)O.O=C(O)/C=C\C(=O)O [Quipazine, N-methyl-, dimaleate]",confirmed neuroprotective activity,
N.N.N.N.N.N.N.N.N.N.N.N.N.N.[Cl-].[Cl-].[Cl-].[Cl-].[Cl-].[Cl-].[O-2].[O-2].[Ru+3].[Ru+3].[Ru+4] [Ruthenium red],confirmed neuroprotective activity,
O=C(OCCN1CCCCC1)c1c[nH]c2ccccc12 [SB 203186],confirmed neuroprotective activity,
C[C@]12C=CC(=O)C=C1CC[C@H]1[C@@H]3C[C@@H](O)[C@](O)(C(=O)CO)[C@@]3(C)C[C@H](O)[C@@]12F [Triamcinolone],confirmed neuroprotective activity,
Cc1ccc(/C(=C\CN2CCCC2)c2ccccn2)cc1 [Triprolidine hydrochloride],confirmed neuroprotective activity,
Cc1c(C)c2c(c(C)c1O)CCC(C)(CN1CCN(c3cc(N4CCCC4)nc(N4CCCC4)n3)CC1)O2.Cl.Cl (stereo not shown) [U-83836 dihydrochloride],confirmed neuroprotective activity,
CCOC(=O)C1=C[C@]2(CC)CCCN3CCc4c(n1c1ccccc41)[C@@H]32 [Vinpocetine],confirmed neuroprotective activity,
O=C(CCCCCCC(=O)Nc1ccccc1)NO [Vorinostat],confirmed neuroprotective activity,
C=C[C@@]1(C)CC(=O)[C@]2(O)[C@@]3(C)[C@@H](O)CCC(C)(C)[C@@H]3[C@H](O)[C@H](OC(C)=O)[C@@]2(C)O1 [forskolin],,increase in cAMP over the DMSO control ([4]; 15 minutes after compound treatment in the presence of serum): 250 fold
Tetradecylthioacetic acid,confirmed neuroprotective activity,
m-Iodobenzylguanidine hemisulfate,confirmed neuroprotective activity,
